Article PMC6173770, “Direct electrical quantification of glucose and asparagine from bodily fluids using nanopores” (Nature Communications, 2018)

Molecular target: T1, SBD1 (Lactococcus lactis, UniProt Q9CES5)
T1 construct: gene glnP; His tag cleaved off by TEV; expressed in E. coli MC1061; SEC purified
T1 sequence (Q9CES5 27-251 limits assumed): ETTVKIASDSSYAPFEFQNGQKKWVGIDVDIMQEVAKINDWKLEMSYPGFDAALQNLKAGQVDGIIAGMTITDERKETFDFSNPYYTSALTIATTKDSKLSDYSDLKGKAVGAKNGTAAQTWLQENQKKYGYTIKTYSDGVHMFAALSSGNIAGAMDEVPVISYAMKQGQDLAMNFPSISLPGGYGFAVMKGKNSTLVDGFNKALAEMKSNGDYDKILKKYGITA
Experiment: single-molecule nanopore current (SBD1 trapped in ClyA-AS), closed fraction vs ligand, Hill fit n = […]
Type: binding
Conditions: 150 mM NaCl, 15 mM Tris-HCl, pH 7.5, 25 °C, -90 mV, asparagine in trans; read-out: Kd^app

## NC(=O)C[C@H](N)C(=O)O [asparagine]
  Kd: 500 ± 40 nM
